The nature of this series: Cytotoxicity against human THP-1 cells by CCK-8 method. It is filed as toxicity, cell-based.
One may read the CC50 as the concentration at which the toxic effect on the cells reaches its halfway point. Higher therefore signals lower toxicity to the cells. On to `COc1ccc(S(=O)(=O)NCC[C@@H]2C(=O)[C@]34[C@H](O)[C@H]2CC[C@H]3[C@@]23CO[C@]4(O)[C@@H](O)[C@@H]2C(C)(C)CC[C@@H]3O)cc1`, for which the CC50 is greater than 100 µM.

For the compound `CC1(C)CC[C@H](O)[C@]23CO[C@](O)([C@@H](O)[C@H]12)[C@]12C(=O)[C@@H](CCNS(=O)(=O)c4ccsc4)[C@H](CC[C@@H]31)[C@H]2O`, the CC50 was greater than 100 µM.

As to `CC1(C)CC[C@H](O)[C@]23CO[C@](O)([C@@H](O)[C@H]12)[C@]12C(=O)[C@@H](CCNS(=O)(=O)/C=C/c4ccccc4)[C@H](CC[C@@H]31)[C@H]2O`, the CC50 was greater than 100 µM.

Compound `CC1(C)CC[C@H](O)[C@]23CO[C@](O)([C@@H](O)[C@H]12)[C@]12C(=O)[C@@H](CCNS(=O)(=O)c4ccc(C(F)(F)F)cc4)[C@H](CC[C@@H]31)[C@H]2O` registered a CC50 greater than 100 µM.

On to `CC1(C)CC[C@H](O)[C@]23CO[C@](O)([C@@H](O)[C@H]12)[C@]12C(=O)[C@@H](CCNS(=O)(=O)c4ccc(C#N)cc4)[C@H](CC[C@@H]31)[C@H]2O`, for which the CC50 was greater than 100 µM.

`CC(C)(C)OC(=O)NCC[C@@H]1C(=O)[C@]23[C@H](O)[C@H]1CC[C@H]2[C@@]12CO[C@]3(O)[C@@H](O)[C@@H]1C(C)(C)CC[C@@H]2O` displayed a CC50 greater than 100 µM.

Regarding `CC1(C)CC[C@H](O)[C@]23CO[C@](O)([C@@H](O)[C@H]12)[C@]12C(=O)[C@@H](CCNS(=O)(=O)c4ccc(F)cc4)[C@H](CC[C@@H]31)[C@H]2O`, the cytotoxic concentration (CC50) was greater than 100 µM.

Consider `CC1(C)CC[C@H](O)[C@]23CO[C@](O)([C@@H](O)[C@H]12)[C@]12C(=O)[C@@H](CCNS(=O)(=O)c4ccccc4)[C@H](CC[C@@H]31)[C@H]2O`, for which the CC50 was greater than 100 µM.

`CC1(C)CC[C@H](O)[C@]23CO[C@](O)([C@@H](O)[C@H]12)[C@]12C(=O)[C@@H](CCNS(=O)(=O)c4cccnc4)[C@H](CC[C@@H]31)[C@H]2O` had a CC50 greater than 100 µM.

For `CC1(C)CC[C@H](O)[C@]23CO[C@](O)([C@@H](O)[C@H]12)[C@]12C(=O)[C@@H](CCN)[C@H](CC[C@@H]31)[C@H]2O`, the CC50 was greater than 100 µM.

`Cn1ccc(S(=O)(=O)NCC[C@@H]2C(=O)[C@]34[C@H](O)[C@H]2CC[C@H]3[C@@]23CO[C@]4(O)[C@@H](O)[C@@H]2C(C)(C)CC[C@@H]3O)n1` registered a CC50 greater than 100 µM.

For the compound `CN(C)c1cccc2c(S(=O)(=O)NCC[C@@H]3C(=O)[C@]45[C@H](O)[C@H]3CC[C@H]4[C@@]34CO[C@]5(O)[C@@H](O)[C@@H]3C(C)(C)CC[C@@H]4O)cccc12`, the CC50 was 96.8 µM.

`C=C1C(=O)[C@]23[C@H](O)[C@H]1CC[C@H]2[C@@]12CO[C@]3(O)[C@@H](O)[C@@H]1C(C)(C)CC[C@@H]2O` [ORIDONIN] displayed a CC50 of 19.8 µM.

Values taken from ChEMBL document CHEMBL5579798, “Discovery of novel oridonin sulfamide derivatives as potent NLRP3 inhibitors by a visible-light photocatalysis-enabled peripheral editing” (Bioorg Med Chem Lett, 2024).
